Data on two sequences can be found in US20040105857A1, “Methods and compositions for enhancing angiogenesis” (priority 2003, published 2004).

Assay [1] deals with T1, αvβ1 expressed by endothelial cells (Homo sapiens, UniProt P05556+P06756).
T1 construct: αvβ1 expressed by endothelial cells; endogenous in cells
The following applies: reference 18; cited from earlier work.

For assay [2], the system named is HDMEC or ECV304 avb3(−) cell adhesion to fibronectin. In words: Cell adhesion to fibronectin (data not shown). In kind it is cell-based. Further details: effect on cell adhesion to fibronectin: dose or concentration left out as unconfirmed. The protocol: The extent to which the L1 polypeptide or L1-RGD peptide alters adhesivity between endothelial cells, or endothelial cells and the subendothelial matrix remains to be determined. However, at a high molarity (250 uM) the L1-RGD peptide abrogated 30-40% of HDMEC or ECV304 avb3(−) cell adhesion to fibronectin (data not shown). […] This would certainly be consistent with the fact that both αvβ3 and αvβ1 can promote cell adhesion or spreading on fibronectin^37-38.

The subject of assay [3] is chick chorioallantoic membrane (CAM). In words: Angiogenesis assay in the chick chorioallantoic membrane (CAM) model, vessel branch point count. In kind it is in vivo. The following applies: for induction of angiogenic response (vessel branch points): within a defined concentration range. Here is the method: FIG. 1 depicts induction of angiogenesis by soluble L1-fusion protein containing the fourth, fifth, and sixth Ig-like domains of L1 (Ig 4-6). a. GST fusion proteins were made covering the entire extra-cellular domain of L1 and consisted of immunoglobulin like domains 1 through 3 (Ig1 3), immunoglobulin like domains 4 through 6 (Ig4-6), and FN type III like domains 1-5 (FN1 5). b. The L1-fusion proteins (Ig 1-3, Ig 4-6 or FN1-5) were tested for their ability to induce an angiogenic response in the chick chorioallantoic membrane (CAM) model. Filter discs each received 0.5 mg of Ig4-6 fusion protein ([…]) or equimolar amounts of the Ig 1-3, or FN1-5 fusion proteins. Negative or positive control groups received filter discs saturated with media alone or with bFGF respectively. Angiogenesis was quantified by counting the number of vessel branch points within the area of membrane immediately beneath the disc. The number of vessel branch points counted in the control group receiving media alone has been subtracted. Treatment groups consisted of a minimum of six embryos and experiments were performed on three separate occasions. c. […] Results obtained using bFGF or media alone are shown for comparison. Note that fine and highly branched angiogenic vessels can be distinguished from large preexisting vessels. Dotted lines delineate the area of the filter disc placed on the membrane. Excised membrane beneath and adjacent to the filter discs were photographed using an Olympus SZH10 Research Stereo microscope at 15×.
FIG. 2 depicts induction of angiogenesis by a L1-RGD peptide and by a function blocking antibody to β1 integrins. a. The L1 peptide PSITWRGDGRDLQEL or the mutant L1 peptide PSITWRADGRDLQEL were tested for their ability to induce an angiogenic response in the chick CAM model. b. Function blocking antibodies to chick avβ3 (LM609) or to chick β1-intgrins (CSAT) were also tested. […] Angiogenesis was quantified by counting the number of vessel branch points within the area of membrane immediately beneath the disc. The number of vessel branch points counted in the control group receiving media alone has been subtracted. c. […]
FIG. 3 depicts induction of angiogenesis by L1 cleavage products. a. […] Untreated and digested L1 (trypsin free) was then analyzed by SDS polyacrylamide gel electrophoresis (5-15% gradient). b. Sites of trypsin cleavage were determined by amino terminal sequencing and are shown schematically. c. […] Angiogenesis was quantified by counting the number of vessel branch points within the area of membrane immediately beneath the disc.
Angiogenesis assay. Angiogenesis was assessed using the chick chorioallantoic membrane (CAM) model which has been extensively described^54. […]

Assay [4] concerns integrin. The assay can be described thus: Integrin-binding activity of mutant L1 peptide (data not shown).

T1 sequence (P06756 31-889 limits assumed): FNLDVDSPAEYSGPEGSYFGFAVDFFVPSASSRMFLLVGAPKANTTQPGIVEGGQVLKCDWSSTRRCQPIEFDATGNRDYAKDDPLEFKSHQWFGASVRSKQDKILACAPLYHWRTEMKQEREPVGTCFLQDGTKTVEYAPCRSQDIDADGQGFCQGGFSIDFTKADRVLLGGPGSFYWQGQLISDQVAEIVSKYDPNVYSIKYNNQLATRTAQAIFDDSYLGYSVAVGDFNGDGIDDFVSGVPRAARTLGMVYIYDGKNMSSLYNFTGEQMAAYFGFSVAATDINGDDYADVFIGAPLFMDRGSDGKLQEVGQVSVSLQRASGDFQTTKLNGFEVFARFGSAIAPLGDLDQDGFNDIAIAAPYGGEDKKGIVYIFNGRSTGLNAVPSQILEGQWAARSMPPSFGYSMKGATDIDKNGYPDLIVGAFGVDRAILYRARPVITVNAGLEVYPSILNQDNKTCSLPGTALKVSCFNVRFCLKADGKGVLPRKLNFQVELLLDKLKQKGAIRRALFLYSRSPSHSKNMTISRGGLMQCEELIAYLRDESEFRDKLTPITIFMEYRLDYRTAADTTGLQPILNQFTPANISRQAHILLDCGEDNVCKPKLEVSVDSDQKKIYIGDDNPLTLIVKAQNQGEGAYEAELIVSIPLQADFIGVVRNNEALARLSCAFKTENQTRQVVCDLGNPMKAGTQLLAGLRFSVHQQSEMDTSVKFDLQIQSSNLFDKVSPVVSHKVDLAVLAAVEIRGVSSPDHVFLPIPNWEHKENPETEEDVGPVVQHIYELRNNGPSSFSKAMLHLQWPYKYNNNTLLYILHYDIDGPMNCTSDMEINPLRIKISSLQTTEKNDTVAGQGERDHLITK
T1 sequence (P06756 891-1048 limits assumed): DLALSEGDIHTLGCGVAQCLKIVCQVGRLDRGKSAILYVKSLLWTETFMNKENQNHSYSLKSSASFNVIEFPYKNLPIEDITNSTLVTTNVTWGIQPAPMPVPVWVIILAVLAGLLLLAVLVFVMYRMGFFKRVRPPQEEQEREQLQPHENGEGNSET
T1 sequence (P05556 21-798): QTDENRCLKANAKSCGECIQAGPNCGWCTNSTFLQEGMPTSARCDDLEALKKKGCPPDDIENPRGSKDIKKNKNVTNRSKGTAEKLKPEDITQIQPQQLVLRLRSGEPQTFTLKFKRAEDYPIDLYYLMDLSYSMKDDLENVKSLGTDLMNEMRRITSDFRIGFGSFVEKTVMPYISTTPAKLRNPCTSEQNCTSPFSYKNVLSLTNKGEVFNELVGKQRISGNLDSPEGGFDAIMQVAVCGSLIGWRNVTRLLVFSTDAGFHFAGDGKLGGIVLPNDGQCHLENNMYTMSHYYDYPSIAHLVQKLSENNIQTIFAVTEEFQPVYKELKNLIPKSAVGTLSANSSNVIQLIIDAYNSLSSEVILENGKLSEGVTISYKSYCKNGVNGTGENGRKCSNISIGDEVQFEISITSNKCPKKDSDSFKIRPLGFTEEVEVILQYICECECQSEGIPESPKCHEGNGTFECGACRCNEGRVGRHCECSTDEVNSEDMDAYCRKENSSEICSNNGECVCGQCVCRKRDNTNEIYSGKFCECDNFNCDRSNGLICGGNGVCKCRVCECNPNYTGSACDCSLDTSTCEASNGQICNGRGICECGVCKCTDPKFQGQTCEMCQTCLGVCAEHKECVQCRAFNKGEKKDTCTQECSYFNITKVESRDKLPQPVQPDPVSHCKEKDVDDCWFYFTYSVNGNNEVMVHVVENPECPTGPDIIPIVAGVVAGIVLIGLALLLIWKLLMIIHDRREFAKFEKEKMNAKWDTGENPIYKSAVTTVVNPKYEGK

Turning to PSITWRGDGRDLQEL [L1-RGD peptide], the “recognition by αvβ1” value in assay [1] is listed as “recognized by αvβ1”. Besides, the “cell adhesion to fibronectin abrogated” value in assay [2] (250 uM peptide, HDMEC or ECV304 avb3(−) cells) is given as 30-40%. Also, the “effect on cell adhesion to fibronectin” value in assay [2] (lower proangiogenic concentrations) is “did not overtly prevent adhesion”. For the same sequence, the “induction of angiogenic response (vessel branch points)” value in assay [3] (L1 peptides, 0.01-5 mg/disc) is “proangiogenic”. In addition, the “angiogenic response at high concentration” value in assay [3] (high concentration of peptide or antibody) is “not effective”.
Consider “PSITWRADGRDLQEL [15-mer L1 peptide containing the mutation RGD to RAD; control peptide]”, for which, in assay [4], the integrin-binding activity result is reported as “retained some integrin-binding activity”. In addition, in assay [3] (L1 peptides, 0.01-5 mg/disc), the “angiogenic activity compared with an equivalent concentration of the wildtype peptide” value is “significantly less proangiogenic” and the “induction of angiogenic response (vessel branch points)” value is listed as “some angiogenic activity”.
